Holding throughout (assay): NCI anticancer screen, dose series, 48 h
The test system of experiment [1] is HCC 2998.
Experiment [2] concerns HOP-62.
The test system of experiment [3] is HOP-92.
Experiment [4] deals with HT-29.
The subject of experiment [5] is LOX IMVI.
Experiment [6] relates to Malme-3M.
In experiment [7] the test system is NCI-H460.
For experiment [8], the system named is OVCAR-4.
The subject of experiment [9] is RPMI-8226.
The subject of experiment [10] is SF-268.
Experiment [11] deals with SK-MEL-2.
Experiment [12] concerns SK-OV-3.
For experiment [13], the system named is SNB-75.
For experiment [14], the system named is TK-10.
Experiment [15] has as its system UACC-257.
Experiment [16] relates to UACC-62.
The test system of experiment [17] is CAKI-1.
Experiment [18] concerns NCI-H522.

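Results reflect a 48-hour exposure of cells in 96-well plates to compound at five concentrations. Abbreviation: GI50, concentration required for 50% inhibition of growth.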 Activity calls are given as the source filed them. Cut-off read from the data, not from the text of the source: active = GI50 up to about 1.1 µM and inactive = higher. Bounds are passed on as bounds.

Turning to `N#CCN1C(=O)c2cccc3cc([N+](=O)[O-])cc(c23)C1=O`, the GI50 in experiment [1] is 44.8 µM (inactive); in [2], 41.1 µM (inactive); in experiment [3] it was 99.1 µM (inactive); in experiment [4], 41.8 µM (inactive); in [5], 21.6 µM (inactive); in experiment [6], 33.6 µM (inactive). Further, the GI50 was 29 µM (inactive) in experiment [7]; 45.4 µM (inactive) in [8]; 22.7 µM (inactive) in experiment [9]; 52 µM (inactive) in [10]; 0.745 µM (active) in experiment [11]; > 100 µM (inactive) in experiment [12]. Also, the GI50 was 38 µM (inactive) in [13], 36.4 µM (inactive) in experiment [14], 24.3 µM (inactive) in experiment [15] and 22.6 µM (inactive) in [16].
Regarding `CC1OC(OP(=O)(OCc2ccccc2)OCc2ccccc2)C(OC(=O)c2ccccc2)C(OC(=O)c2ccccc2)C1I` (configuration not stated), the GI50 is 29.6 µM (inactive) in experiment [17]; 54.6 µM (inactive) in experiment [1]; > 100 µM (inactive) in [2]; 42.9 µM (inactive) in experiment [4]; 47.4 µM (inactive) in [5]; 39.4 µM (inactive) in experiment [6]. Moreover, the GI50 is 34 µM (inactive) in experiment [7]; 21.4 µM (inactive) in experiment [18]; 60.1 µM (inactive) in [8]; 19.6 µM (inactive) in experiment [9]; 52.2 µM (inactive) in experiment [10]; 23.8 µM (inactive) in [11]. In addition, the GI50 in [12] was > 100 µM (inactive); in experiment [13] it was 9.31 µM (inactive); in [14], > 100 µM (inactive); in experiment [15], 39.3 µM (inactive); in experiment [16], 48.9 µM (inactive).
For the molecule `CN(C)/C=N/c1nc2c(ncn2C2OC(CO)C(O)C2O)c(=O)[nH]1` (configuration not stated), the GI50 in [17], in [1], in [2], in [3], in experiment [4] and in [6] was > 100 µM (inactive) each time. The GI50 in experiment [7], in experiment [8], in experiment [9], in experiment [10], in experiment [11] and in [12] was > 100 µM (inactive) throughout. The GI50 in experiment [13], in experiment [14], in [15] and in experiment [16] was > 100 µM (inactive) in each case.
`Cc1ccc(S(=O)(=O)NCCCN(CCCNS(=O)(=O)c2ccc(C)cc2)S(=O)(=O)c2ccc(C)cc2)cc1`: the GI50 in experiment [1], in [2], in experiment [5], in experiment [6], in experiment [7] and in experiment [18] was > 100 µM (inactive) throughout. Further, the GI50 in experiment [9], in experiment [10], in experiment [12], in experiment [13], in experiment [14] and in experiment [15] was > 100 µM (inactive) in each case. Besides, in [16], the GI50 was > 100 µM (inactive).
On to `O=C(/C=C/c1ccccc1F)c1ccc([N+](=O)[O-])cc1`, for which the GI50 in [17] was 15.5 µM (inactive); in [1], 15.6 µM (inactive); in experiment [2], 32.6 µM (inactive); in experiment [3] it was 16.3 µM (inactive); in [4], 9.44 µM (inactive); in experiment [5] it was 4.35 µM (inactive). In addition, the GI50 was 27.8 µM (inactive) in experiment [6]; 30.8 µM (inactive) in experiment [7]; 25.3 µM (inactive) in experiment [8]; 2 µM (inactive) in experiment [9]; 27.2 µM (inactive) in experiment [10]; 56.5 µM (inactive) in experiment [12]. Besides, the figures for the GI50 in experiment [13], in experiment [14] and in experiment [16] were 4.58 µM (inactive), 23.9 µM (inactive) and 22.9 µM (inactive), respectively.
As for `COc1ccc(S(=O)(=O)N[C@H](C(=O)O)c2ccccc2)cc1`, the GI50 in [17], in experiment [1], in experiment [2], in experiment [4], in experiment [5] and in experiment [6] was > 100 µM (inactive) each time. Moreover, the GI50 in experiment [7] is > 100 µM (inactive); in [18], > 10 µM (inactive); in experiment [8], > 100 µM (inactive); in experiment [9], > 100 µM (inactive); in [10] it was > 100 µM (inactive); in experiment [11], > 100 µM (inactive). Further, the GI50 in [12], in experiment [13], in experiment [14], in experiment [15] and in [16] was > 100 µM (inactive) in each case.
As to `c1ccc2c(c1)SC(=C1Sc3ccccc3S1)S2`, the GI50 in [17] is > 100 µM (inactive); in experiment [1], > 100 µM (inactive); in experiment [2] it was > 100 µM (inactive); in experiment [3], 61.7 µM (inactive); in experiment [4], > 100 µM (inactive); in experiment [5] it was 75.7 µM (inactive). Also, the GI50 in experiment [6] is > 100 µM (inactive); in [7], 55.8 µM (inactive); in [8], > 100 µM (inactive); in experiment [10], > 100 µM (inactive); in [12], > 100 µM (inactive); in experiment [13] it was 22.4 µM (inactive). Moreover, the GI50 in [14] and in experiment [16] was > 100 µM (inactive) each time.
For the molecule `Cc1cc(C)c(-c2noc(-c3ccc(Cl)cc3)c2C2=NCCN2)c(C)c1`, the GI50 in [17] was 76.4 µM (inactive); in experiment [1], 17.8 µM (inactive); in experiment [2], 22.1 µM (inactive); in experiment [4], 13.3 µM (inactive); in [5], 20.3 µM (inactive); in experiment [6] it was 20.4 µM (inactive). The GI50 is 13.8 µM (inactive) in experiment [7]; > 10 µM (inactive) in experiment [18]; 78.9 µM (inactive) in experiment [8]; 17.9 µM (inactive) in [9]; 17.3 µM (inactive) in experiment [10]; 22.6 µM (inactive) in experiment [11]. The GI50 in experiment [12] was 13.7 µM (inactive); in [13] it was 17.1 µM (inactive); in [15] it was 17.5 µM (inactive); in [16], 16.8 µM (inactive).
As for `CC(C)(C)C1CCC(O)(c2ccccc2)CC1` (configuration not stated), the GI50 in experiment [1] is > 100 µM (inactive); in experiment [2], > 100 µM (inactive); in experiment [4], 74.3 µM (inactive); in [5] it was 77.6 µM (inactive); in experiment [6], > 100 µM (inactive); in experiment [7], > 100 µM (inactive). Besides, the GI50 in [18] is 40.6 µM (inactive); in experiment [9], 47.8 µM (inactive); in experiment [11], > 100 µM (inactive); in experiment [12], > 100 µM (inactive); in [13], 86.7 µM (inactive); in experiment [14], > 100 µM (inactive). Further, the GI50 in experiment [15] was 54.6 µM (inactive); in experiment [16], > 100 µM (inactive).
With `Cc1cc(C)nc(NS(=O)(=O)c2ccc(Nc3c4ccccc4nc4c(C(=O)N5CCN(CCO)CC5)ccc(Cl)c34)cc2)n1`, the GI50 was > 100 µM (inactive) in [17]; > 100 µM (inactive) in experiment [1]; > 100 µM (inactive) in [2]; > 100 µM (inactive) in [3]; 70 µM (inactive) in [4]; > 100 µM (inactive) in experiment [6]. Further, the GI50 is > 100 µM (inactive) in experiment [7]; > 100 µM (inactive) in experiment [8]; 91.4 µM (inactive) in experiment [9]; 76.9 µM (inactive) in experiment [10]; > 100 µM (inactive) in [11]; > 100 µM (inactive) in experiment [12]. The GI50 in experiment [13] is 87.9 µM (inactive); in experiment [14], > 100 µM (inactive); in experiment [15] it was 51.5 µM (inactive); in [16], 83 µM (inactive).
Regarding `C/C(=N\NS(=O)(=O)c1ccc(C)cc1)c1c(O)cc(C)oc1=O`, the GI50 in experiment [17], in experiment [1], in experiment [2], in experiment [3], in experiment [4] and in experiment [5] was > 100 µM (inactive) each time. In addition, the GI50 in experiment [6] is > 100 µM (inactive); in experiment [7], > 100 µM (inactive); in experiment [8] it was 29.1 µM (inactive); in experiment [10], > 100 µM (inactive); in [11], > 100 µM (inactive); in experiment [12], > 100 µM (inactive). Besides, the GI50 in experiment [13], in experiment [14], in experiment [15] and in experiment [16] was > 100 µM (inactive) in each case.
For `N=S(c1ccccc1)c1ccccc1[N+](=O)[O-]` (configuration not stated), the GI50 was 13.7 µM (inactive) in experiment [17]; 19.1 µM (inactive) in [1]; 25.6 µM (inactive) in experiment [2]; 21.5 µM (inactive) in experiment [4]; 13.1 µM (inactive) in [5]; 15.1 µM (inactive) in [6]. Besides, the GI50 in experiment [7] was 28.1 µM (inactive); in experiment [18] it was 4.71 µM (inactive); in experiment [8] it was 14.8 µM (inactive); in experiment [9] it was 18.2 µM (inactive); in experiment [10], 19.8 µM (inactive); in experiment [11], 29.3 µM (inactive). The GI50 in experiment [12] was 33 µM (inactive); in experiment [13], 25.8 µM (inactive); in experiment [14], 20.4 µM (inactive); in experiment [15], 18.1 µM (inactive); in experiment [16] it was 16.8 µM (inactive).
